The values below come from US10442788B2, “Hepatitis B antiviral agents” (ENANTA PHARMACEUTICALS, INC., priority 2015, dated 2019).

In the assay the test system is HBV. In words: HepAD38 antiviral assay: reduction of viral product accumulation (virion DNA by qPCR, HBsAg or HBeAg by ELISA). Particulars: Hepatitis B virus. The class given is cell-based. The procedure: Methods: HepAD38 cells are maintained as previously reported (Ladner et al, Antimicrob. Agents Chemother. 1997, […], 1715). Briefly, cells are passaged upon attaining confluency in DMEM/F12 media in the presence of 10% FBS, Penn/Strep, 250 μg/mL G418, and 1 ug/ml tetracycline. Novel compounds are screened by first washing cells three times with PBS to remove tetracycline, and plating in 96 well plates at 35,000 cells/well. Compounds dissolved in DMSO are then diluted 1:200 into wells containing cells. Five days after compound addition, material is harvested for analysis. For an extended 8 day analysis, cells are plated and treated as described above, but media and compound are refreshed on d2 and d5 post initial treatment.
On harvest day, virion DNA is obtained by lysing with Sidestep Lysis and Stabilization Buffer and then quantified via quantitative real time PCR. Commercially available ELISA kits are used to quantitate the viral proteins HBsAg (Alpco) or HbeAg (US Biological) by following the manufacturer's recommended protocol after diluting samples to match the linear range of their respective assays. Irrespective of readout, compound concentrations that reduce viral product accumulation in the cell lysates or supernatants by 50% relative to no drug controls (EC50) are reported; EC50 ranges are as follows: A<1 μM; B 1-10 μM; C>10 μM.
A general note: Real-time PCR tracks product formation cycle by cycle.

Setting [1] is: 120 h, HepAD38 cells, five days after compound addition, 50% reduction of viral product accumulation relative to no drug controls, read-out: HepAD38 EC50.

Structures are written as SMILES. Read-outs that look alike come from different tables or passages of the source.

Usually EC50 stands for the concentration giving half of the maximal effect. On to `O=S(=O)(c1cc(-c2nc(-c3ccc(Cl)c(C4CC4)c3)c[nH]2)ccc1Cl)N1CCC(O)CC1` [Example 17], for which, under setting [1], the EC50 was less than 1 µM.

Take `O=S(=O)(c1cc(-c2nc(-c3ccc(Br)c(F)c3)c[nH]2)ccc1Cl)N1CC[C@@H](O)[C@@H](O)CC1` [Example 19]: the EC50 under setting [1] was less than 1 µM.

As to `O=S(=O)(c1cc(-c2nc(-c3ccc(Br)c(F)c3)c[nH]2)ccc1Cl)N1CC[C@@H](O)[C@H](O)CC1` [Example 20], under setting [1], the EC50 was less than 1 µM.

Take `O=S(=O)(c1cc(-c2nc(-c3ccc(Br)c(F)c3)c[nH]2)ccc1Cl)N1C[C@@H](O)C[C@H]2C[C@H]2C1` [Example 34]: the EC50 under setting [1] was less than 1 µM.

On to `O=S(=O)(c1cc(-c2nc(-c3cccs3)c[nH]2)ccc1Cl)N1CCC(O)CC1` [Example 70], for which the EC50 under setting [1] lay within 1 to 10 µM.

On to `O=S(=O)(c1cc(-c2nc(-c3ccccc3Br)c[nH]2)ccc1Cl)N1CCC(O)CC1` [Example 74], for which the EC50 under setting [1] is greater than 10 µM.

For `O=S(=O)(c1cc(-c2nc(-c3ccccc3Cl)c[nH]2)ccc1Cl)N1CCC(O)CC1` [Example 75], the EC50 under setting [1] was greater than 10 µM.

Take `O=S(=O)(c1cc(-c2nc(-c3ccc4ocnc4c3)c[nH]2)ccc1Cl)N1CCC(O)CC1` [Example 76]: the EC50 under setting [1] was greater than 10 µM.

With `COCCN(C)S(=O)(=O)c1cc(-c2ncc(-c3ccc(F)c(Br)c3)[nH]2)ccc1Cl` [Example 77], the EC50 under setting [1] is greater than 10 µM.

With `O=S(=O)(c1cc(-c2nc(-c3cc(F)c(F)c(Cl)c3)c[nH]2)ccc1Cl)N1CCC(O)CC1` [Example 78], the EC50 under setting [1] was greater than 10 µM.

Take `O=S(=O)(c1cc(-c2nc(-c3cscn3)c[nH]2)ccc1Cl)N1CCC(O)CC1` [Example 80]: the EC50 under setting [1] is greater than 10 µM.

Turning to `O=S(=O)(c1cc(-c2nc(-c3nccs3)c[nH]2)ccc1Cl)N1CCC(O)CC1` [Example 81], the EC50 under setting [1] was greater than 10 µM.

With `O=S(=O)(c1cc(-c2nc(-c3ccc(F)cc3F)c[nH]2)ccc1Cl)N1CCC(O)CC1` [Example 84], the EC50 under setting [1] was in the range of 1 to 10 µM.

Take `O=S(=O)(c1cc(-c2nc(-c3cccc(F)c3F)c[nH]2)ccc1Cl)N1CCC(O)CC1` [Example 85]: under setting [1], the EC50 is greater than 10 µM.

In the case of `O=S(=O)(c1cc(-c2nc(-c3cc(F)cc(F)c3)c[nH]2)ccc1Cl)N1CCC(O)CC1` [Example 86], the EC50 under setting [1] was in the range of 1 to 10 µM.

Turning to `COc1ccccc1-c1c[nH]c(-c2ccc(Cl)c(S(=O)(=O)N3CCC(O)CC3)c2)n1` [Example 88], the EC50 under setting [1] lay in the range of 1 to 10 µM.

In the case of `Cc1ccc(-c2c[nH]c(-c3ccc(Cl)c(S(=O)(=O)N4CCC(O)CC4)c3)n2)cc1` [Example 96], the EC50 under setting [1] lay within 1 to 10 µM.

With `N#Cc1ccc(-c2c[nH]c(-c3ccc(Cl)c(S(=O)(=O)N4CCC(O)CC4)c3)n2)cc1` [Example 97], the EC50 under setting [1] is less than 1 µM.

Turning to `COc1ccc(-c2c[nH]c(-c3ccc(Cl)c(S(=O)(=O)N4CCC(O)CC4)c3)n2)cc1` [Example 98], the EC50 under setting [1] was in the range of 1 to 10 µM.

Turning to `O=S(=O)(c1cc(-c2nc(-c3ccc(C(F)(F)F)cc3)c[nH]2)ccc1Cl)N1CCC(O)CC1` [Example 99], the EC50 under setting [1] is greater than 10 µM.

With `CC(C)(C)CC(=O)NCCCNS(=O)(=O)c1cc(-c2nc(-c3ccc(Br)c(F)c3)c[nH]2)ccc1Cl` [Example 141], the EC50 under setting [1] was less than 1 µM.

Turning to `N#Cc1ccc(-c2c[nH]c(-c3ccc(Cl)c(S(=O)(=O)N4CCC(O)CC4)c3)n2)cc1Cl` [Example 149], under setting [1], the EC50 was less than 1 µM.

`N#Cc1cc(-c2c[nH]c(-c3ccc(Cl)c(S(=O)(=O)N4CCC(O)CC4)c3)n2)ccc1C(F)(F)F` [Example 150]: the EC50 under setting [1] was less than 1 µM.

As for `O=S(=O)(c1cc(-c2nc(-c3ccc(C(F)(F)F)c(Cl)c3)c[nH]2)ccc1Cl)N1CCC(O)CC1` [Example 151], the EC50 under setting [1] is less than 1 µM.

Take `O=S(=O)(c1cc(-c2nc(-c3ccc(Cl)c(C(F)(F)F)c3)c[nH]2)ccc1Cl)N1CCC(O)CC1` [Example 152]: under setting [1], the EC50 is less than 1 µM.

Turning to `NS(=O)(=O)c1cc(-c2nc(-c3ccc(Br)c(F)c3)c[nH]2)ccc1Cl` [Example 153], the EC50 under setting [1] lay in the range of 1 to 10 µM.

As for `N#Cc1ccc(-c2c[nH]c(-c3ccc(Cl)c(S(=O)(=O)N4CCC(O)CC4)c3)n2)cc1C(F)(F)F` [Example 155], the EC50 under setting [1] was less than 1 µM.

For `N#Cc1cc(-c2c[nH]c(-c3ccc(Cl)c(S(=O)(=O)N4CCC(O)CC4)c3)n2)ccc1C1CC1` [Example 156], the EC50 under setting [1] lay within 1 to 10 µM.

As for `O=S(=O)(c1cc(-c2nc(-c3ccc(C4CC4)c(Cl)c3)c[nH]2)ccc1Cl)N1CCC(O)CC1` [Example 157], the EC50 under setting [1] was less than 1 µM.

For the compound `CC(C)(C)c1ccc(-c2c[nH]c(-c3ccc(Cl)c(S(=O)(=O)N4CCC(O)CC4)c3)n2)cc1` [Example 158], under setting [1], the half-maximal effective concentration (EC50) is less than 1 µM.

Consider `O=S(=O)(c1cc(-c2nc(-c3ccccc3O)c[nH]2)ccc1Cl)N1CCC(O)CC1` [Example 159], for which the EC50 under setting [1] was in the range of 1 to 10 µM.

`C[C@H](N)C(=O)OC1CCN(S(=O)(=O)c2cc(-c3nc(-c4ccc(F)c(Br)c4)c[nH]3)ccc2Cl)CC1` [Example 160]: the EC50 under setting [1] is 1 to 10 µM.

In the case of `O=S(=O)(c1cc(-c2nc(-c3ccc(C(F)(F)F)c(C4CC4)c3)c[nH]2)ccc1Cl)N1CCC(O)CC1` [Example 161], the EC50 under setting [1] was less than 1 µM.

For `CC(C)(C)c1cccc(-c2c[nH]c(-c3ccc(Cl)c(S(=O)(=O)N4CCC(O)CC4)c3)n2)c1` [Example 162], the EC50 under setting [1] lay in the range of 1 to 10 µM.

Consider `O=S(=O)(c1cc(-c2nc(-c3ccc(Br)c(F)c3)c[nH]2)ccc1Cl)N1CC2COCC2C1` (stereo not shown) [Example 163], for which the EC50 under setting [1] was less than 1 µM.

Regarding `COCC(C)NS(=O)(=O)c1cc(-c2nc(-c3ccc(Br)c(F)c3)c[nH]2)ccc1Cl` (stereo not shown) [Example 164], the EC50 under setting [1] was 1 to 10 µM.

In the case of `O=C(c1ccccc1)N1CCN(S(=O)(=O)c2cc(-c3nc(-c4ccc(Br)c(F)c4)c[nH]3)ccc2Cl)CC1` [Example 165], the EC50 under setting [1] lay in the range of 1 to 10 µM.

For the compound `O=C(Nc1ccccc1)C1CCN(S(=O)(=O)c2cc(-c3nc(-c4ccc(Br)c(F)c4)c[nH]3)ccc2Cl)CC1` [Example 166], the EC50 under setting [1] lay within 1 to 10 µM.

For `CC(C)(C)OC(=O)NC[C@@H]1[C@H]2CN(S(=O)(=O)c3cc(-c4ncc(-c5ccc(F)c(Br)c5)[nH]4)ccc3Cl)C[C@@H]12` [Example 167], the EC50 under setting [1] was 1 to 10 µM.

In the case of `COC(=O)NC[C@@H]1[C@H]2CN(S(=O)(=O)c3cc(-c4ncc(-c5ccc(F)c(Br)c5)[nH]4)ccc3Cl)C[C@@H]12` [Example 168], under setting [1], the EC50 was less than 1 µM.

Regarding `C[C@H](NC(=O)OC(C)(C)C)C(=O)OC1CCN(S(=O)(=O)c2cc(-c3nc(-c4ccc(F)c(Br)c4)c[nH]3)ccc2Cl)CC1` [Example 169], the EC50 under setting [1] is less than 1 µM.

With `N#Cc1ccc(-c2c[nH]c(-c3ccc(Cl)c(S(=O)(=O)N4CCC(O)CC4)c3)n2)cc1C1CC1` [Example 170], the EC50 under setting [1] was less than 1 µM.

For `O=S(=O)(c1cc(-c2nc(-c3ccc(C4CC4)c(C(F)(F)F)c3)c[nH]2)ccc1Cl)N1CCC(O)CC1` [Example 171], under setting [1], the EC50 was less than 1 µM.

For `COC(=O)NCCC(C)NS(=O)(=O)c1cc(-c2nc(-c3ccc(Br)c(F)c3)c[nH]2)ccc1Cl` (stereo not shown) [Example 172], the EC50 under setting [1] was less than 1 µM.

Consider `COC(=O)NCCCCNS(=O)(=O)c1cc(-c2nc(-c3ccc(Br)c(F)c3)c[nH]2)ccc1Cl` [Example 173], for which, under setting [1], the EC50 is less than 1 µM.

In the case of `CC(C)(C)OC(=O)NCCCCNS(=O)(=O)c1cc(-c2nc(-c3ccc(Br)c(F)c3)c[nH]2)ccc1Cl` [Example 174], the EC50 under setting [1] was less than 1 µM.

With `COC(=O)NCCCCCNS(=O)(=O)c1cc(-c2nc(-c3ccc(Br)c(F)c3)c[nH]2)ccc1Cl` [Example 175], the EC50 under setting [1] was less than 1 µM.

Consider `CC(C)(C)OC(=O)NCCCCCNS(=O)(=O)c1cc(-c2nc(-c3ccc(Br)c(F)c3)c[nH]2)ccc1Cl` [Example 176], for which, under setting [1], the EC50 is less than 1 µM.

As to `COC(=O)OCCCNS(=O)(=O)c1cc(-c2nc(-c3ccc(Br)c(F)c3)c[nH]2)ccc1Cl` [Example 177], the EC50 under setting [1] was less than 1 µM.

As to `COC(=O)N(C)CCCNS(=O)(=O)c1cc(-c2nc(-c3ccc(Br)c(F)c3)c[nH]2)ccc1Cl` [Example 178], the EC50 under setting [1] is less than 1 µM.

Regarding `O=C(NCCCNS(=O)(=O)c1cc(-c2nc(-c3ccc(Br)c(F)c3)c[nH]2)ccc1Cl)Oc1ccccc1` [Example 179], for the setting “HePAD38, 120 h, read-out: HepAD38 EC50 (μM)”, the EC50 is less than 1 µM.

Take `O=C(NCCCNS(=O)(=O)c1cc(-c2nc(-c3ccc(Br)c(F)c3)c[nH]2)ccc1Cl)OCc1ccccc1` [Example 180]: under setting [1], the EC50 was less than 1 µM.

Take `O=C(NCCCNS(=O)(=O)c1cc(-c2nc(-c3ccc(Br)c(F)c3)c[nH]2)ccc1Cl)c1ccccc1` [Example 181]: the concentration giving a half-maximal response (EC50) under setting [1] is less than 1 µM.

On to `CC(C)(C)OC(=O)NCC1CN(S(=O)(=O)c2cc(-c3ncc(-c4ccc(F)c(Br)c4)[nH]3)ccc2Cl)C1` [Example 182], for which, under setting [1], the EC50 was less than 1 µM.

As for `CC(C)(C)OC(=O)NC1CN(S(=O)(=O)c2cc(-c3ncc(-c4ccc(Br)c(F)c4)[nH]3)ccc2Cl)C1` [Example 183], the EC50 under setting [1] is less than 1 µM.

For the compound `O=S(=O)(c1cc(-c2nc(-c3ccc(Br)c(F)c3)c(Cl)[nH]2)ccc1Cl)N1CCC(O)CC1` [Example 184], the EC50 under setting [1] is greater than 10 µM.

As to `COC(=O)NCC(O)CNS(=O)(=O)c1cc(-c2nc(-c3ccc(Br)c(F)c3)c[nH]2)ccc1Cl` (stereo not shown) [Example 185], under setting [1], the EC50 was less than 1 µM.

Consider `CNC(=O)OCCCNS(=O)(=O)c1cc(-c2nc(-c3ccc(Br)c(F)c3)c[nH]2)ccc1Cl` [Example 186], for which the EC50 under setting [1] was less than 1 µM.
